Assays:
EGFR = EGFR (Homo sapiens, UniProt P00533); assay: EGFR autophosphorylation kinase assay (DELFIA/time-resolved fluorometry)
Experimental: (§2) A sequence that encodes (His)6 was located at the 5′ upstream to the HER-2 and EGFR sequences. Sf-9 cells were infected for 3 days for protein expression. Sf-9 cell pellets were solubilized at 0 °C in a buffer at pH 7.4 containing 50 mM HEPES, 10 mM NaCl, 1% Triton, 10 μM ammonium molybdate, 100 μM sodium vanadate, 10 μg/mL aprotinin, 10 μg/mL leupeptin, 10 μg/mL pepstatin, and 16 μg/mL benzamidine, HCl for 20 min followed by 20 min centrifugation. Crude extract supernatant was passed through an equilibrated Ni–NTA superflow packed column and washed with 10 mM and then 100 mM imidazole to remove nonspecifically bound material. Histidine-tagged proteins were eluted with 250 and 500 mM imidazole and dialyzed against 50 mM NaCl, 20 mM HEPES, 10% glycerol and 1 μg/mL each of aprotinin, leupeptin, and pepstatin for 2 h. The entire purification procedure was performed at 4 °C or on ice.
(§3) Both EGFR and HER-2 kinase assays were set up to assess the level of autophosphorylation based on DELFIA/Time-Resolved Fluorometry. […] Then, 10 μL of 5× buffer (containing 20 mM HEPES, 2 mM MnCl2, 100 μM Na3VO4, and 1 mM DTT) and 20 μL of 0.1 mM ATP-50 mM MgCl2 was added for 1 h. Positive and negative controls were included in each plate by incubation of enzyme with or without ATP-MgCl2. At the end of incubation, liquid was aspirated and plates were washed three times with wash buffer. A 75 μL (400 ng) sample of europium-labeled anti-phosphotyrosine antibody was added to each well for another 1 h of incubation. […] The IC50 was obtained from curves of percentage inhibition with eight concentrations of compound. As the contaminants in the enzyme preparation are fairly low, the majority of the signal detected by the anti-phosphotyrosine antibody is from EGFR or HER-2. The experiment was performed for three independent times and in triplicate each time.

HER-2 = HER-2 (Homo sapiens, UniProt P04626); assay: HER-2 autophosphorylation kinase assay (DELFIA/time-resolved fluorometry); conditions: for SI EGFR/HER-2: selectivity index, IC50 EGFR/IC50 HER-2
Experimental: as §2, §3

[1] = test system: MCF-7 human breast cancer cell line; assay: Anti-proliferation assay (MTT), MCF-7; type: cell-based; conditions: MCF7, 24 h
Experimental: (§1) MCF-7 human breast cancer cells was cultured in DMEM/10% fetal bovine serum, in 5% CO2 water saturated atmosphere at 37 °C. MDA-MB-453 human breast cancer cells was cultured in L-15 medium in 100% air at 37 °C. Cell suspensions (10000/mL) were prepared and 100 μL/well dispensed into 96-well plates (Costar) giving 1000 cells/well. The plates were returned to the incubator for 24 h to allow the cells to reattach. These compounds were initially prepared at 20 mM in DMSO. Aliquots (200 μL) were diluted into 20 mL culture medium giving 200 μM, and 10 serial dilutions of 3× prepared. Aliquots (100 μL) of each dilution were added to the wells, giving doses ranging from 100 μM to 0.005 μM. After a further incubated at 37 °C for 24 h in a humidified atmosphere with 5% CO2, the cell viability was assessed by the conventional 3-(4,5-dimethylthiazol-2-yl)-2,5-diphenyltetrazolium bromide (MTT) reduction assay and carried out strictly according to the manufacturer instructions (Sigma). The absorbance at 590 nm was recorded using LX300 Epson Diagnostic micro-plate reader. Then GI50 was calculated using SPSS 13.0 software.

[2] = test system: MDA-MB-453 human breast cancer cell line; assay: Anti-proliferation assay (MTT), MDA-MB-453; type: cell-based; conditions: 24 h
Experimental: as §1

Sequence of HER-2 (P04626 676-1245): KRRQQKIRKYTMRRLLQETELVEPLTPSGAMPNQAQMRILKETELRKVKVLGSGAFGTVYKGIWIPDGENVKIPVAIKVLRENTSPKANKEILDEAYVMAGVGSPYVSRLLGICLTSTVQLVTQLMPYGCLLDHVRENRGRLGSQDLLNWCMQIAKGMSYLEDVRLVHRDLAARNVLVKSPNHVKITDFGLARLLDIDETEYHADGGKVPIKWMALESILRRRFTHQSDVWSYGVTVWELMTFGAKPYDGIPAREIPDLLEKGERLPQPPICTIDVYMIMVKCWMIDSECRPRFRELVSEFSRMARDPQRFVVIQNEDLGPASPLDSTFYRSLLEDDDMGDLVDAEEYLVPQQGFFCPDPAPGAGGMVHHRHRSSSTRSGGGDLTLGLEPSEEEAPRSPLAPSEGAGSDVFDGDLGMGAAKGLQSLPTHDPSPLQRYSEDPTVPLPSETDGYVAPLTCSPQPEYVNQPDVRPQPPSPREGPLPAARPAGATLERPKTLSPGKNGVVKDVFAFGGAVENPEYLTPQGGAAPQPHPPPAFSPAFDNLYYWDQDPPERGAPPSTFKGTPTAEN
Sequence of EGFR (P00533 669-1210): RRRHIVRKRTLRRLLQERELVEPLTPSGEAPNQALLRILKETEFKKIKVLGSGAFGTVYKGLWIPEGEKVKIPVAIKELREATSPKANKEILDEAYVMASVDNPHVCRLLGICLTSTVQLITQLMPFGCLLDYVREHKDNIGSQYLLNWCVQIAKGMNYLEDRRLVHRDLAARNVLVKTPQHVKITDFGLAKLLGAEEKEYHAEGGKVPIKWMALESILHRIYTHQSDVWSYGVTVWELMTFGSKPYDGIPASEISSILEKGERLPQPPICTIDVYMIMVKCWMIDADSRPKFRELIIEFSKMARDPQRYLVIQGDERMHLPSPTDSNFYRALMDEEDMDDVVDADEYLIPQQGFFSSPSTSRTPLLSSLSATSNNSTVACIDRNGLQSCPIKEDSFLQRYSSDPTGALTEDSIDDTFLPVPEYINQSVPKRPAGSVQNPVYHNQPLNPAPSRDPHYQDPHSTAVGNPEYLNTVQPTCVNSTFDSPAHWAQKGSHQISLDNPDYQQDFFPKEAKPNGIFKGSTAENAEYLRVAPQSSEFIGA

SMILES	IC50 (EGFR)	IC50 (HER-2)	SI EGFR/HER-2 (HER-2)	GI50 [1]	GI50 [2]	melting point
NC(=S)N1N=C(c2ccc3c(c2)OCCO3)CC1c1ccccc1 (stereo not shown) [Compound C1, 3-(2,3-dihydrobenzo[b][1,4]dioxin-6-yl)-5-phenyl-4,5-dihydro-1H-pyrazole-1-carbothioamide]	21.9 ± 2.03 µM	16 ± 1.45 µM	1.36	10 ± 0.91 µM	63.4 ± 6.12 µM	166 to 168 °C
NC(=S)N1N=C(c2ccc3c(c2)OCCO3)CC1c1ccccc1F (stereo not shown) [Compound C4, 3-(2,3-dihydrobenzo[b][1,4]dioxin-6-yl)-5-(2-fluorophenyl)-4,5-dihydro-1H-pyrazole-1-carbothioamide]	59.3 ± 5.58 µM	125 ± 10.2 µM	0.47	185 ± 17.8 µM	> 300 µM	169 to 171 °C
COc1cccc(C2CC(c3ccc4c(c3)OCCO4)=NN2C(N)=S)c1 (stereo not shown) [Compound C5, 3-(2,3-dihydrobenzo[b][1,4]dioxin-6-yl)-5-(3-methoxyphenyl)-4,5-dihydro-1H-pyrazole-1-carbothioamide]	43.6 ± 4.1 µM	86.5 ± 8.05 µM	0.50	57.2 ± 5.36 µM	135 ± 11.1 µM	168 to 170 °C
NC(=S)N1N=C(c2ccc3c(c2)OCCO3)CC1c1cccc(Cl)c1 (stereo not shown) [Compound C7, 5-(3-chlorophenyl)-3-(2,3-dihydrobenzo[b][1,4]dioxin-6-yl)-4,5-dihydro-1H-pyrazole-1-carbothioamide]	9.45 ± 0.88 µM	62.8 ± 5.67 µM	0.15	16.8 ± 0.98 µM	> 300 µM	246 to 248 °C
NC(=S)N1N=C(c2ccc3c(c2)OCCO3)CC1c1cccc(Br)c1 (stereo not shown) [Compound C8, 5-(3-bromophenyl)-3-(2,3-dihydrobenzo[b][1,4]dioxin-6-yl)-4,5-dihydro-1H-pyrazole-1-carbothioamide]	8.63 ± 0.78 µM	0.45 ± 0.04 µM	19.2	5.64 ± 0.52 µM	1.69 ± 0.15 µM	247 to 249 °C
NC(=S)N1N=C(c2ccc3c(c2)OCCO3)CC1c1ccc(F)cc1 (stereo not shown) [Compound C11, 3-(2,3-dihydrobenzo[b][1,4]dioxin-6-yl)-5-(4-fluorophenyl)-4,5-dihydro-1H-pyrazole-1-carbothioamide]	47.8 ± 4.54 µM	1.9 ± 0.15 µM	25.2	28.5 ± 2.8 µM	11.9 ± 1.05 µM	235 to 237 °C
C#Cc1cccc(Nc2ncnc3cc(OCCOC)c(OCCOC)cc23)c1 [Erlotinib, reference compound]	–	–	–	0.08 ± 0.006 µM	1.56 ± 0.14 µM	–

Continued by falling GI50 [1], values first:

IC50 (EGFR)	IC50 (HER-2)	SI EGFR/HER-2 (HER-2)	GI50 [1]	GI50 [2]	melting point	SMILES
4.42 ± 0.35 µM	7.18 ± 0.65 µM	0.62	5.3 ± 0.49 µM	19.9 ± 1.84 µM	204 to 206 °C	NC(=S)N1N=C(c2ccc3c(c2)OCCO3)CC1c1ccc2ccccc2c1 (stereo not shown) [Compound C3, 3-(2,3-dihydrobenzo[b][1,4]dioxin-6-yl)-5-(naphthalen-2-yl)-4,5-dihydro-1H-pyrazole-1-carbothioamide]
4.49 ± 0.41 µM	0.06 ± 0.004 µM	74.8	4.95 ± 0.43 µM	0.2 ± 0.02 µM	178 to 180 °C	NC(=S)N1N=C(c2ccc3c(c2)OCCO3)CC1c1cccc(OCc2ccccc2)c1 (stereo not shown) [Compound C6, 5-(3-(benzyloxy)phenyl)-3-(2,3-dihydrobenzo[b][1,4]dioxin-6-yl)-4,5-dihydro-1H-pyrazole-1-carbothioamide]
2.94 ± 0.26 µM	0.56 ± 0.05 µM	5.25	4.68 ± 0.42 µM	2.2 ± 0.18 µM	214 to 216 °C	NC(=S)N1N=C(c2ccc3c(c2)OCCO3)CC1c1cccc2ccccc12 (stereo not shown) [Compound C2, 3-(2,3-dihydrobenzo[b][1,4]dioxin-6-yl)-5-(naphthalen-1-yl)-4,5-dihydro-1H-pyrazole-1-carbothioamide]
–	–	–	3.12 ± 0.24 µM	0.03 ± 0.002 µM	–	CS(=O)(=O)CCNCc1ccc(-c2ccc3ncnc(Nc4ccc(OCc5cccc(F)c5)c(Cl)c4)c3c2)o1 [Lapatinib, reference compound]

Source: PMC4897788, “Design, biological evaluation and 3D QSAR studies of novel dioxin-containing pyrazoline derivatives with thiourea skeleton as selective HER-2 inhibitors” (Scientific Reports, 2016)
